Experimental data: PubChem BioAssay (NCI)
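A five-concentration, 48-hour dose response in 96-well plates underlies each endpoint, interpolated linearly between surrounding concentrations. Definition used: TGI = concentration required for complete inhibition of growth.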

Experiments:
Experiment in all cases: NCI tumour cell line growth inhibition, 48 h
MALME-3M melanoma = system: MALME-3M melanoma
CCRF-CEM leukemia = system: CCRF-CEM leukemia
MCF7 breast = system: MCF7 breast
NCI-H23 lung = system: NCI-H23 lung
IGROV1 ovarian = system: IGROV1 ovarian
A549 NSCLC = system: A549 NSCLC
SR leukemia = system: SR leukemia
UO-31 renal = system: UO-31 renal
MDA-MB-435 = system: MDA-MB-435
MDA-MB-231 breast = system: MDA-MB-231 breast
HCT-15 colon = system: HCT-15 colon
MOLT-4 leukemia = system: MOLT-4 leukemia
HOP-62 NSCLC = system: HOP-62 NSCLC
UACC-62 melanoma = system: UACC-62 melanoma
HL-60(TB) leukemia = system: HL-60(TB) leukemia
HCC-2998 colon = system: HCC-2998 colon
SK-MEL-2 melanoma = system: SK-MEL-2 melanoma
NCI-H226 lung = system: NCI-H226 lung
RXF 393 renal = system: RXF 393 renal
HCT-116 colon = system: HCT-116 colon

| SMILES | TGI (MALME-3M melanoma) [µM] | TGI (CCRF-CEM leukemia) [µM] | TGI (MCF7 breast) [µM] | TGI (NCI-H23 lung) [µM] | TGI (IGROV1 ovarian) [µM] | TGI (A549 NSCLC) [µM] | TGI (SR leukemia) [µM] | TGI (UO-31 renal) [µM] | TGI (MDA-MB-435) [µM] | TGI (MDA-MB-231 breast) [µM] | TGI (HCT-15 colon) [µM] | TGI (MOLT-4 leukemia) [µM] | TGI (HOP-62 NSCLC) [µM] | TGI (UACC-62 melanoma) [µM] | TGI (HL-60(TB) leukemia) [µM] | TGI (HCC-2998 colon) [µM] | TGI (SK-MEL-2 melanoma) [µM] | TGI (NCI-H226 lung) [µM] | TGI (RXF 393 renal) [µM] | TGI (HCT-116 colon) [µM] |
| --- | --- | --- | --- | --- | --- | --- | --- | --- | --- | --- | --- | --- | --- | --- | --- | --- | --- | --- | --- | --- |
| COc1ccc(-c2c(C#N)c(S)n(C3OC(CO)C(O)C(O)C3O)c(=O)c2C#N)cc1 (stereo not given) | > 100 | > 100 | > 100 | > 100 | > 100 | > 100 | > 100 | > 100 | > 100 | > 100 | > 100 | > 100 | > 100 | > 100 | > 100 | > 100 | > 100 | > 100 | > 100 |  |
| C=C(Br)CN(CC(=C)Br)C(C)=O | > 100 | > 100 | > 100 | > 100 | > 100 | > 100 | > 100 | > 100 | > 100 | > 100 | > 100 | > 100 | > 100 | > 100 | > 100 | > 100 | > 100 | > 100 | > 100 | > 100 |
| NC1=Nc2ccccc2Sc2nnc(-c3ccc(Cl)cc3)n21 | > 100 | 56.2 | > 100 | > 100 | > 100 | > 100 | > 100 | > 100 | > 100 | 73.1 | > 100 | 72.2 | 85 | > 100 | > 100 | > 100 | > 100 | > 100 | > 100 | > 100 |
| COc1cc(/C=C/C2=NN(c3cccc(S(=O)(=O)O)c3)C3(C2)C(Cl)C(=O)N3c2nc3ccccc3s2)ccc1O (stereo not given) | 34.5 | 42.2 | > 100 | 29.6 | 31.5 | > 100 | 34.8 | 33.6 | 32.1 | 47.1 | 37.4 | 44.9 |  | 43.1 | 42.5 | 38.2 | > 100 | 52.6 | > 100 | 39.2 |
| O=C1CCc2cc3c(cc21)CC1(Cc2ccccc2C1)C3 | > 100 | 7.03 | > 100 | > 86.5 | > 100 | > 100 | 5.18 | > 100 | 5.92 | > 100 | > 100 | 12.7 | > 84.6 | > 88.3 | 5.26 | > 70.5 | 6.37 | 67.7 | > 76.8 | > 46.3 |
| CCc1cc2c(cc1CCCC(=O)O)CC1(Cc3ccc(C(=O)O)cc3C1)C2 (stereo not given) | > 100 | > 100 | > 100 | > 100 | > 100 | > 100 | > 100 | > 100 | > 100 | > 100 | > 100 | > 100 | > 100 |  | > 100 | > 100 | > 100 | > 100 | > 100 | > 100 |
| O=C1C(N=Nc2ccc(-c3nc4ccccc4o3)cc2)NC(=S)N1c1ccccc1 (stereo not given) | > 100 | 0.679 | > 100 | > 100 | > 100 | > 100 | 85.6 | > 100 | > 100 | > 100 | > 100 | > 100 | > 100 | > 100 | 0.742 | > 100 | > 100 | > 100 | > 100 | > 100 |
| Clc1ncnc2c1nc(C#Cc1ccccc1)n2Cc1ccccc1 | > 100 | > 100 | > 100 | 42.8 |  | > 100 | > 100 | 5.47 | 43 | 71 | 36.6 | > 100 | > 100 | > 100 | > 100 | 27 | 98.4 | > 100 | 48 | > 100 |
| CC(=O)Nc1ccc(N2C(=O)/C(=C\c3cccc(Oc4ccccc4)c3)SC2c2ccccc2)cc1 (stereo not given) | 62.4 | 41.1 | 65.8 | > 100 |  | > 100 | 56.4 | > 100 | > 100 | > 100 | > 100 | 68.5 | 56.6 | > 100 | > 100 | > 100 | > 100 | > 100 | > 100 | 39.6 |
| CSc1c(C(=O)Nc2ccc(Cl)cc2)c(N)[nH]c(=O)c1C#N | > 100 | > 100 | > 78.6 | 53.3 | > 100 | > 100 | > 100 | 59 | > 70.9 | > 60.9 | > 100 | > 91.9 | 73 | > 100 | > 100 | > 90.2 | 32.2 | > 100 | > 96.3 | 44.3 |
| Cc1ccc(-c2n[nH]c(=O)[nH]2)cc1 | > 100 | > 100 | > 100 | > 100 | > 100 | > 100 | > 100 | > 100 | > 100 | > 100 | > 100 | > 100 | > 100 | > 100 | > 100 | > 100 | > 100 | > 100 | > 100 | > 100 |
| CCOC(=O)C1(Cc2c[nH]c3ccccc23)C(O)CCCN1C(C)=O (stereo not given) | > 100 | > 100 | > 100 | > 100 | > 100 | > 100 | > 100 | > 100 | > 100 | > 100 | > 100 | > 100 | > 100 | > 100 | > 100 | > 100 | > 100 | > 100 | > 100 | > 100 |
| CCCCCCCC(=O)N/N=C/c1ccc(Sc2nccn2C)c([N+](=O)[O-])c1 | 29 | 17.2 | 38.2 | 42.9 | 24.7 | > 100 | 55.6 | 22.7 | 28.5 | 30.1 | 29.3 | 62.5 | 36.4 | 25.8 | 0.772 | 26.5 | 31 | 32.5 | 30.4 | 28.5 |
| Cc1cc(NS(=O)(=O)c2ccc(Nc3c4ccccc4nc4ccc(C(=O)Nc5ccc(S(=O)(=O)N=C(N)N)cc5)cc34)cc2)no1 | > 100 | > 100 | > 100 | > 100 | > 100 | > 100 | > 100 | > 100 | > 100 | > 100 | > 100 | > 100 | > 100 | > 100 | > 100 | > 100 | > 100 | > 100 | > 100 | > 100 |
| NCCCc1ccc2oc3ccccc3c2c1 | 34.3 | 32.6 | 34.2 | 41.8 | 43.7 | 32.9 | 52.2 | 29.6 | 29.1 | 33 | 36.4 | 30.5 | 32 | 31.9 | 31.2 | 22.5 | 38.2 | 35.5 | 32.4 | 29.7 |
| CCOC(=O)N1CCN(C(=O)Nc2cccc3ccccc23)CC1 | > 10 | > 10 | > 10 | > 10 | > 10 | > 10 | > 10 | > 10 | > 10 | > 10 | > 10 | > 10 | > 10 | > 10 | > 10 | > 10 | > 10 | > 10 | > 10 | > 10 |
| Cc1nnc2sc(-c3ccc(-c4ccccc4Cl)o3)nn12 | > 100 | > 100 | > 100 | 74.2 | > 100 | > 100 | 53.6 | > 100 | 44 | > 100 | 86 | 51.1 | > 100 | > 100 | 63.3 | 64.4 | 86.7 | 83.5 | > 100 | 44.2 |
| c1ccc2c(c1)CCN2CCc1c[nH]c2ccccc12 | > 10 | > 10 | > 10 | > 10 | > 10 | > 10 | > 10 | > 10 | > 10 | > 10 | > 10 | > 10 | > 10 | > 10 | > 10 | > 10 | > 10 | > 10 | > 10 | > 10 |
